Laboratory results as given in patent US20100292135A1 (priority 2005, published 2010).

What was measured:
[1] = test system: RecA-dependent SOS induction in GY7313 cells; experiment: SOS induction by MMC in permeabilized E. coli (sfi-lacZ reporter, β-galactosidase); type: cell-based; conditions: MMC-induced
RecA protein [2] = molecular target: T1, RecA protein (Escherichia coli, UniProt P0A7G6); type: biochemical, E. coli
[3] = test system: wild type (AB1157) bacteria; experiment: Development of chloramphenicol resistance (mean latency time, OD600 growth); type: cell-based; conditions: in the presence of RecA
RecA protein [4] = molecular target: T1, RecA protein; conditions: cited from earlier work
RecA protein [5] = molecular target: T1, RecA protein; experiment: biochemical; type: binding, E. coli

T1 sequence (P0A7G6 2-353): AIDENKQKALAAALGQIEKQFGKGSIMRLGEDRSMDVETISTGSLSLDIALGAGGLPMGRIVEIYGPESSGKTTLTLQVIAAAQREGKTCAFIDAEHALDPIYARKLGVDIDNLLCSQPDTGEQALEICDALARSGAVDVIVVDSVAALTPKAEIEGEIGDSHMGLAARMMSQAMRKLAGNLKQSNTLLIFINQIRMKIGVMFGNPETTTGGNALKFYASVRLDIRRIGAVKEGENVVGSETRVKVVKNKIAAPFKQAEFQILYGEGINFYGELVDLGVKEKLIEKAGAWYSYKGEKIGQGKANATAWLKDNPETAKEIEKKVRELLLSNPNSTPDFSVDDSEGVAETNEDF

## O=P(O)(O)OP(=O)(O)OC[C@H]1O[C@@H](n2cnc3c(Nc4cccc5ccccc45)ncnc32)[C@H](O)[C@@H]1O [Compound 1, N^6-(1-Naphthyl)-Adenosine-5′-O-Diphosphate]
[1]
  inhibition of SOS induction (β-galactosidase): significantly inhibits SOS induction

## O[C@@H](CS)[C@@H](O)CS [L-DTT, 1,4-dithio-L-threitol]
RecA protein [2]
  inhibition of RecA ATPase activity (in words): no inhibition

## NCCCCNCCCN [spermidine]
[3]
  effect on chloramphenicol resistance development: retards resistance development

## Nc1ncnc2c1ncn2[C@@H]1O[C@H](COP(=O)(O)OP(=O)(O)OP(=O)(O)O)[C@@H](O)[C@H]1O [ATP, adenosine triphosphate]
RecA protein [2]
  Hill coefficient nH: 3
  Michaelis constant S0.5 for RecA and ATP: 47 µM
RecA protein [4]
  S0.5 for ATP, reported literature values: 40 to 45 µM

## Nc1ncnc2c1ncn2[C@@H]1O[C@H](COP(=O)(O)OP(=O)(O)O)[C@@H](O)[C@H]1O [ADP, adenosine diphosphate]
RecA protein [5]
  Kd: 84 ± 27 µM

## CCOS(C)(=O)=O [EMS]
[3]
  effect on chloramphenicol resistance development: speed resistance development
